Numbering of substitutions follows the chain as printed. Values joined by “and” are separate entries in the source; they are usually repeats but may differ in a detail not shown here. Equal entries are not always repeated.
Assays:
Experiment in all cases: Cell assay (liposome/EV binding, flow cytometry)
Type in all cases: cell-based
[1] = molecular target: T1, Siglec-15 R143A CHO cells (Homo sapiens, UniProt Q6ZMC9, K274L/R143A); conditions: Sig-15 R143A; 3 mol% ganglioside liposomes; replicates
T1 construct: expressed in transfected cells
T1 sequence (Q6ZMC9 20-328 R143A/K274L): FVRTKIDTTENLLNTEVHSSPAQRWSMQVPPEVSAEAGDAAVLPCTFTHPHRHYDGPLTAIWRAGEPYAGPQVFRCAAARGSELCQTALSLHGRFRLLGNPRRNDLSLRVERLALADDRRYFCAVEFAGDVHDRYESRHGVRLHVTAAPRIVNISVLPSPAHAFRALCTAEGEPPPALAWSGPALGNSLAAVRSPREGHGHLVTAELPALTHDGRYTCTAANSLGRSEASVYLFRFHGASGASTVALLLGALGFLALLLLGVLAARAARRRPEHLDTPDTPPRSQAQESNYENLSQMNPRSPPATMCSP
How it was run: (§1)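 Cells are incubated for 30 min at 37 °C with ligand-displaying liposomes (50 µM lipid) or EVs (50 µg/mL protein) in DMEM F12 containing 5% FBS. After washing and anti-Siglec staining on ice, liposome binding is quantified by flow cytometry within the Siglec-positive population.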

[2] = molecular target: T2, Siglec-15 WT CHO cells (Homo sapiens, UniProt Q6ZMC9, K274L); conditions: Sig-15 WT; 3 mol% ganglioside liposomes; replicates
T2 construct: expressed in transfected cells
T2 sequence (Q6ZMC9 20-328 K274L): T1 sequence (Q6ZMC9 20-328 R143A/K274L) with A124R
How it was run: as §1

[3] = molecular target: T3, WT Siglec-6 CHO cells (Homo sapiens, UniProt O43699); conditions: Sig-6 WT; 3 mol% ganglioside liposomes; replicates
T3 construct: expressed in transfected cells
T3 sequence (O43699 27-453): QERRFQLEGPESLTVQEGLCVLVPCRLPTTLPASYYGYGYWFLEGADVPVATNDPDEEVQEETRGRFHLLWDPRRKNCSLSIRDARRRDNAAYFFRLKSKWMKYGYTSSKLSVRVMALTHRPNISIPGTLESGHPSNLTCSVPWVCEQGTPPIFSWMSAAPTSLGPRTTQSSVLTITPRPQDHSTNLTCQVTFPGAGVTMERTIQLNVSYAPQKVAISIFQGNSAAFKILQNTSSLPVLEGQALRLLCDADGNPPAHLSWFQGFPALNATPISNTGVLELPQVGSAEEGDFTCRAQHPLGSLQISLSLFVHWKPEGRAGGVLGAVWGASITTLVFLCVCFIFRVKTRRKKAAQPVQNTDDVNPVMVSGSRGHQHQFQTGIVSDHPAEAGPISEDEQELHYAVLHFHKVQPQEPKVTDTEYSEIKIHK
How it was run: (§2)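 Binding of AF647-labelled, Siglec ligand-bearing liposomes (130 ± 35 nm) or EVs was measured on transfected CHO cells. Exposure was 50 µM or 50 µg/mL for 30 min at 37 °C; Siglec-positive cells were gated for analysis.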

[4] = molecular target: T4, CD33 R119A CHO cells (Homo sapiens, UniProt P20138, R119A); conditions: 3 mol% ganglioside liposomes, replicates
T4 construct: expressed in transfected cells
T4 sequence (P20138 18-364 R119A): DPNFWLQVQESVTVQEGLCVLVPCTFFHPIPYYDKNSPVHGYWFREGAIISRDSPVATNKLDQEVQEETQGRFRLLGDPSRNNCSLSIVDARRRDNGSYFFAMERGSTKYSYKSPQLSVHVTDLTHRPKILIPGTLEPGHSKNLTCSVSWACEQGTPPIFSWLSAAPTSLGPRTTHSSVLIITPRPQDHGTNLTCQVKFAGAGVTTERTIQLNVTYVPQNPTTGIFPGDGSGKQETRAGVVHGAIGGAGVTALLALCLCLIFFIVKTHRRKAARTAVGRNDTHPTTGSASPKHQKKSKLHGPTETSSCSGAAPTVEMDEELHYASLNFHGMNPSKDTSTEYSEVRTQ
How it was run: as §1

[5] = molecular target: T5, Siglec-10 WT CHO cells (Homo sapiens, UniProt Q96LC7); conditions: Sig-10 WT; 3 mol% ganglioside liposomes; replicates
T5 construct: expressed in transfected cells
T5 sequence (Q96LC7 17-697): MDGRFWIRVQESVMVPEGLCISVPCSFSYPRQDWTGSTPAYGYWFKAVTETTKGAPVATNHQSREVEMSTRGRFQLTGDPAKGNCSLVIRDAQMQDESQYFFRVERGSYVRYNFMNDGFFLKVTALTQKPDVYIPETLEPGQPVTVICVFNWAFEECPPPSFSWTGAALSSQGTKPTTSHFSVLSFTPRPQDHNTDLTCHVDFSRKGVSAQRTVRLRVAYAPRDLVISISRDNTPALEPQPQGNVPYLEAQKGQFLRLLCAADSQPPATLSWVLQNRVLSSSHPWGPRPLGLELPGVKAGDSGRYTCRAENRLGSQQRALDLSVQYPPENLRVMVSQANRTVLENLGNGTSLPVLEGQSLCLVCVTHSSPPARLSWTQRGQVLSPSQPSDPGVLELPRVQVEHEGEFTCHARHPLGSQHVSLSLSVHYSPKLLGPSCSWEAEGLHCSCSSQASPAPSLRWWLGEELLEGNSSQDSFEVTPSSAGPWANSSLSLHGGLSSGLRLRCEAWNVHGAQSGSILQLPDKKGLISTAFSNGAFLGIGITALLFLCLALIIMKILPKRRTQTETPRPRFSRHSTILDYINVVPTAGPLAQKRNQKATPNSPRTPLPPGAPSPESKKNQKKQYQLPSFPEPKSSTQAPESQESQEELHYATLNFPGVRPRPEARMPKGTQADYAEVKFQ
How it was run: as §2

GT1b
log10(MFI AF647) of GLL relative to log10(MFI AF647) of the same GLL against UT CHO cells (Fig. 2a) [1]: -0.03 and -0.06 and -0.05 (2×) | log10(MFI AF647) of GLL relative to log10(MFI AF647) of the same GLL against UT CHO cells (Fig. 2a) [2]: -0.04 (3×) and -0.01 | log10(MFI AF647) of GLL relative to log10(MFI AF647) of the same GLL against UT CHO cells (Fig. 2a) [3]: 0.81 and 0.79 and 0.8 (2×) | log10(MFI AF647) of GLL relative to log10(MFI AF647) of the same GLL against UT CHO cells (Fig. 2a) [4]: -0.06 | log10(MFI AF647) of GLL relative to log10(MFI AF647) of the same GLL against UT CHO cells (Fig. 2a) [5]: 0.42 (2×) and 0.4 and 0.39
